Tested on: Leptosphaeria nodorum (LEPTNO)
Assay: In vitro fungitoxicity assay against Leptosphaeria nodorum in copper-minus / copper-plus liquid medium
Format: cell-based
Settings: Parastagonospora nodorum; test compound 0.05 μg/mL, copper-minus medium, 25° C., 72 h, growth by light scattering; read-out: LEPTNO % Inhn. Minus Copper Observed
Description: In vitro fungitoxicity assays against Leptosphaeria nodorum (LEPTNO) were conducted using the liquid growth medium described by Coursen and Sisler (American Journal of Botany 1960, 47, 541-549) except that copper micronutrient, normally included as CuSO4, was omitted. The medium, termed “copper-minus”, was prepared by dissolving 10 g glucose, 1.5 g K2HPO4, 2 g KH2PO4 and 1 g (NH4)2SO4 in 1 liter of deionized water and treating the solution with 0.5 g Chelex 100 resin (Bio-Rad Analytical grade, 50-100 mesh, sodium form, cat#142-2822) by stirring at room temperature for 1 h. MgSO4.7H2O (0.5 g) was added, and stirring was continued for a further hour. Trace elements (minus CuSO4), and vitamins described by Coursen and Sisler were added from concentrated stock solutions and the entire medium was sterilized by filtration. Medium containing copper was prepared by adding CuCl2.2H2O to the copper-minus medium at 20 μM. […] Copper-minus medium (100 μL) was added to one of the wells and copper-plus medium to the second well. Control wells, included for each medium, received 1 μL DMSO and 100 μL of medium.
LEPTNO was grown on potato dextrose agar in 9 cm diameter petri dishes for 7 days (d). Sterile deionized water (20 mL) was added to a culture plate and spores suspended by scraping the surface gently with a sterile plastic loop. The resulting suspension was filtered through a double layer of sterile cheesecloth. […] The spores were resuspended in copper-minus medium, and the suspension adjusted to 2×10^5 spores per mL. Microtiter plates were inoculated with 100 μL of this spore suspension and the plates incubated at 25° C. for 72 h before assessing fungal growth by measuring light scattering in a NepheloStar plate reader. Growth inhibition was determined by comparing growth in the presence of test compound with growth in control wells lacking test compound.

| Structure (SMILES) | inhibition of growth at 0.05 µg/mL |
| --- | --- |
| C/C(=N\NC(=O)c1sc(C)nc1C)c1cc(Cl)cc(Cl)c1O [Compound 43] | 0% |
| Cc1nc(C)c(C(=O)N/N=C/c2cc(Br)cc(Br)c2O)s1 [Compound 30] | 1% |
| C/C(=N\NC(=O)c1ccc(Cl)s1)c1cc(Cl)cc(Cl)c1O [Compound 44] | 2% |
| Cc1c(C(=O)N/N=C/c2ccccc2O)[nH]c2c([N+](=O)[O-])cccc12 [Compound 4] | 11.3% |
| O=C(N/N=C/c1cc(Cl)cc(Cl)c1O)c1ccsc1 [Compound 28] | 4.4% |
| C/C(=N\NC(=O)c1cnn(-c2ccc(Cl)cc2)c1C(F)(F)F)c1cc(Cl)cc(Cl)c1O [Compound 41] | 0% |
| O=C(N/N=C/c1cc(Cl)cc(Cl)c1O)c1cnn(-c2ccc(Cl)cc2)c1C(F)(F)F [Compound 17] | 15.8% |
| O=C(N/N=C/c1cc(Br)cc(Br)c1O)c1ccc(Cl)s1 [Compound 31] | 4.9% |
| O=C(N/N=C/c1ccccc1)c1cnn(-c2ccc(Cl)cc2)c1C(F)(F)F [Compound 18] | 0% |
| Cn1cc(C(=O)N/N=C/c2cc(Cl)cc(Cl)c2O)c2ccccc21 [Compound 15] | 16.3% |
| Cc1cc(C(=O)N/N=C/c2ccccc2O)c2cc(Br)ccc2n1 [Compound 3] | 0% |
| C/C(=N\NC(=O)c1ccsc1)c1cc(Br)cc(Br)c1O [Compound 53] | 7.6% |
| C/C(=N\NC(=O)c1ccsc1)c1ccccc1O [Compound 40] | 0% |
| C/C(=N\NC(=O)c1csc(C)c1)c1cc(Cl)cc(Cl)c1O [Compound 45] | 3.7% |
| Cc1cc(C(=O)N/N=C/c2ccccc2O)cs1 [Compound 24] | 2.9% |
| O=C(N/N=C/c1cc(Cl)cc(Cl)c1O)c1ccc(Cl)s1 [Compound 26] | 2.7% |
| Cc1cc(C(=O)N/N=C/c2cc(Cl)cc(Cl)c2O)c2cc(Br)ccc2n1 [Compound 1] | 2.5% |
| O=C(N/N=C/c1ccccc1O)c1snnc1-c1ccccc1 [Compound 22] | 9.6% |
| C/C(=N\NC(=O)c1ccc(Cl)s1)c1cc(Br)cc(Br)c1O [Compound 50] | 0% |
| C/C(=N\NC(=O)c1cn(-c2ccccc2)nc1O)c1ccccc1O [Compound 36] | 9.2% |
| C/C(=N\NC(=O)c1cnn(-c2ccc(Cl)cc2)c1C(F)(F)F)c1cc(Br)cc(Br)c1O [Compound 48] | 4.3% |
| O=C(N/N=C/c1cc(Br)cc(Br)c1O)c1ccsc1 [Compound 34] | 0% |

Same assay, conditions: test compound 0.05 μg/mL, copper-plus medium (CuCl2.2H2O), 25° C., 72 h

| Structure (SMILES) | LEPTNO % Inhn. Plus Copper Observed |
| --- | --- |
| C/C(=N\NC(=O)c1sc(C)nc1C)c1cc(Cl)cc(Cl)c1O [Compound 43] | 94.3% |
| Cc1nc(C)c(C(=O)N/N=C/c2cc(Br)cc(Br)c2O)s1 [Compound 30] | 71.2% |
| C/C(=N\NC(=O)c1ccc(Cl)s1)c1cc(Cl)cc(Cl)c1O [Compound 44] | 96.9% |
| Cc1c(C(=O)N/N=C/c2ccccc2O)[nH]c2c([N+](=O)[O-])cccc12 [Compound 4] | 91.4% |
| O=C(N/N=C/c1cc(Cl)cc(Cl)c1O)c1ccsc1 [Compound 28] | 97.6% |
| C/C(=N\NC(=O)c1cnn(-c2ccc(Cl)cc2)c1C(F)(F)F)c1cc(Cl)cc(Cl)c1O [Compound 41] | 71.3% |
| O=C(N/N=C/c1cc(Cl)cc(Cl)c1O)c1cnn(-c2ccc(Cl)cc2)c1C(F)(F)F [Compound 17] | 92.6% |
| O=C(N/N=C/c1cc(Br)cc(Br)c1O)c1ccc(Cl)s1 [Compound 31] | 97.8% |
| O=C(N/N=C/c1ccccc1)c1cnn(-c2ccc(Cl)cc2)c1C(F)(F)F [Compound 18] | 92.5% |
| Cn1cc(C(=O)N/N=C/c2cc(Cl)cc(Cl)c2O)c2ccccc21 [Compound 15] | 98.1% |
| Cc1cc(C(=O)N/N=C/c2ccccc2O)c2cc(Br)ccc2n1 [Compound 3] | 72.9% |
| C/C(=N\NC(=O)c1ccsc1)c1cc(Br)cc(Br)c1O [Compound 53] | 97.6% |
| C/C(=N\NC(=O)c1ccsc1)c1ccccc1O [Compound 40] | 96.8% |
| C/C(=N\NC(=O)c1csc(C)c1)c1cc(Cl)cc(Cl)c1O [Compound 45] | 98.3% |
| Cc1cc(C(=O)N/N=C/c2ccccc2O)cs1 [Compound 24] | 94.8% |
| O=C(N/N=C/c1cc(Cl)cc(Cl)c1O)c1ccc(Cl)s1 [Compound 26] | 97.5% |
| Cc1cc(C(=O)N/N=C/c2cc(Cl)cc(Cl)c2O)c2cc(Br)ccc2n1 [Compound 1] | 73.8% |
| O=C(N/N=C/c1ccccc1O)c1snnc1-c1ccccc1 [Compound 22] | 77.9% |
| C/C(=N\NC(=O)c1ccc(Cl)s1)c1cc(Br)cc(Br)c1O [Compound 50] | 97.5% |
| C/C(=N\NC(=O)c1cn(-c2ccccc2)nc1O)c1ccccc1O [Compound 36] | 92.5% |
| C/C(=N\NC(=O)c1cnn(-c2ccc(Cl)cc2)c1C(F)(F)F)c1cc(Br)cc(Br)c1O [Compound 48] | 56% |
| O=C(N/N=C/c1cc(Br)cc(Br)c1O)c1ccsc1 [Compound 34] | 97.9% |

Tested on: not given
Assay: not given
Settings: not given

| Structure (SMILES) | melting point |
| --- | --- |
| C/C(=N\NC(=O)c1sc(C)nc1C)c1cc(Cl)cc(Cl)c1O [Compound 43] | 208 to 209 °C |
| Cc1nc(C)c(C(=O)N/N=C/c2cc(Br)cc(Br)c2O)s1 [Compound 30] | 225 to 226 °C |
| C/C(=N\NC(=O)c1ccc(Cl)s1)c1cc(Cl)cc(Cl)c1O [Compound 44] | 221 to 224 °C |
| Cc1c(C(=O)N/N=C/c2ccccc2O)[nH]c2c([N+](=O)[O-])cccc12 [Compound 4] | 296 to 299 °C |
| O=C(N/N=C/c1cc(Cl)cc(Cl)c1O)c1ccsc1 [Compound 28] | 315 to 318 °C |
| C/C(=N\NC(=O)c1cnn(-c2ccc(Cl)cc2)c1C(F)(F)F)c1cc(Cl)cc(Cl)c1O [Compound 41] | 209 to 211 °C |
| O=C(N/N=C/c1cc(Cl)cc(Cl)c1O)c1cnn(-c2ccc(Cl)cc2)c1C(F)(F)F [Compound 17] | 216 to 217 °C |
| O=C(N/N=C/c1cc(Br)cc(Br)c1O)c1ccc(Cl)s1 [Compound 31] | 247 to 248 °C |
| O=C(N/N=C/c1ccccc1)c1cnn(-c2ccc(Cl)cc2)c1C(F)(F)F [Compound 18] | 205 to 207 °C |
| Cn1cc(C(=O)N/N=C/c2cc(Cl)cc(Cl)c2O)c2ccccc21 [Compound 15] | 215 to 217 °C |
| Cc1cc(C(=O)N/N=C/c2ccccc2O)c2cc(Br)ccc2n1 [Compound 3] | 270 to 275 °C |
| C/C(=N\NC(=O)c1ccsc1)c1cc(Br)cc(Br)c1O [Compound 53] | 251 to 253 °C |
| C/C(=N\NC(=O)c1ccsc1)c1ccccc1O [Compound 40] | 148 to 150 °C |
| C/C(=N\NC(=O)c1csc(C)c1)c1cc(Cl)cc(Cl)c1O [Compound 45] | 218 to 220 °C |
| Cc1cc(C(=O)N/N=C/c2ccccc2O)cs1 [Compound 24] | 180 to 182 °C |
| O=C(N/N=C/c1cc(Cl)cc(Cl)c1O)c1ccc(Cl)s1 [Compound 26] | 248 to 250 °C |
| Cc1cc(C(=O)N/N=C/c2cc(Cl)cc(Cl)c2O)c2cc(Br)ccc2n1 [Compound 1] | 265 to 267 °C |
| O=C(N/N=C/c1ccccc1O)c1snnc1-c1ccccc1 [Compound 22] | 191 to 192 °C |
| C/C(=N\NC(=O)c1ccc(Cl)s1)c1cc(Br)cc(Br)c1O [Compound 50] | 253 to 255 °C |
| C/C(=N\NC(=O)c1cn(-c2ccccc2)nc1O)c1ccccc1O [Compound 36] | 276 to 277 °C |
| C/C(=N\NC(=O)c1cnn(-c2ccc(Cl)cc2)c1C(F)(F)F)c1cc(Br)cc(Br)c1O [Compound 48] | 121 to 125 °C |
| O=C(N/N=C/c1cc(Br)cc(Br)c1O)c1ccsc1 [Compound 34] | 236 to 237 °C |

Tested on: Phytophthora infestans
Assay: not given
Format: in vivo
Settings: hydrazone 50 ppm with 50 μM CuCl2.2H2O, applied 24 h before inoculation, tomato plants, assessed 7 d after inoculation

| Structure (SMILES) | TLB % control |
| --- | --- |
| C/C(=N\NC(=O)c1sc(C)nc1C)c1cc(Cl)cc(Cl)c1O [Compound 43] | 66% |
| Cc1nc(C)c(C(=O)N/N=C/c2cc(Br)cc(Br)c2O)s1 [Compound 30] | 49% |
| C/C(=N\NC(=O)c1ccc(Cl)s1)c1cc(Cl)cc(Cl)c1O [Compound 44] | 68% |
| Cc1c(C(=O)N/N=C/c2ccccc2O)[nH]c2c([N+](=O)[O-])cccc12 [Compound 4] | 4% |
| O=C(N/N=C/c1cc(Cl)cc(Cl)c1O)c1ccsc1 [Compound 28] | 80% |
| C/C(=N\NC(=O)c1cnn(-c2ccc(Cl)cc2)c1C(F)(F)F)c1cc(Cl)cc(Cl)c1O [Compound 41] | 36% |
| O=C(N/N=C/c1cc(Cl)cc(Cl)c1O)c1cnn(-c2ccc(Cl)cc2)c1C(F)(F)F [Compound 17] | 69% |
| O=C(N/N=C/c1cc(Br)cc(Br)c1O)c1ccc(Cl)s1 [Compound 31] | 88% |
| O=C(N/N=C/c1ccccc1)c1cnn(-c2ccc(Cl)cc2)c1C(F)(F)F [Compound 18] | 7% |
| Cn1cc(C(=O)N/N=C/c2cc(Cl)cc(Cl)c2O)c2ccccc21 [Compound 15] | 12% |
| Cc1cc(C(=O)N/N=C/c2ccccc2O)c2cc(Br)ccc2n1 [Compound 3] | 25% |
| C/C(=N\NC(=O)c1ccsc1)c1cc(Br)cc(Br)c1O [Compound 53] | 73% |
| C/C(=N\NC(=O)c1ccsc1)c1ccccc1O [Compound 40] | 80% |
| C/C(=N\NC(=O)c1csc(C)c1)c1cc(Cl)cc(Cl)c1O [Compound 45] | 83% |
| Cc1cc(C(=O)N/N=C/c2ccccc2O)cs1 [Compound 24] | 56% |
| O=C(N/N=C/c1cc(Cl)cc(Cl)c1O)c1ccc(Cl)s1 [Compound 26] | 92% |
| Cc1cc(C(=O)N/N=C/c2cc(Cl)cc(Cl)c2O)c2cc(Br)ccc2n1 [Compound 1] | 7% |
| O=C(N/N=C/c1ccccc1O)c1snnc1-c1ccccc1 [Compound 22] | 56% |
| C/C(=N\NC(=O)c1ccc(Cl)s1)c1cc(Br)cc(Br)c1O [Compound 50] | 85% |
| C/C(=N\NC(=O)c1cn(-c2ccccc2)nc1O)c1ccccc1O [Compound 36] | 66% |
| C/C(=N\NC(=O)c1cnn(-c2ccc(Cl)cc2)c1C(F)(F)F)c1cc(Br)cc(Br)c1O [Compound 48] | 19% |
| O=C(N/N=C/c1cc(Br)cc(Br)c1O)c1ccsc1 [Compound 34] | 80% |

— patent US8563472B2 (priority 2010, dated 2013)
